Measurements from US20240360194A1, “New Peptides as Potent and Selective GIP Receptor Agonists” (Sanofi, priority 2021, published 2024).
≈ marks a conversion by molar mass, not a printed value. Numbered stars: 1 amine (or outer) side, 2 acyl side, 3 side chain; on linkers, the order of the positions; unused ones are H or OH. Square brackets hold non-standard residues; d marks the D form. Side chains are listed from the residue outwards. Peptide text beside a SMILES is read from it. * marks the point of attachment. C18 diacid = O=C(O)CCCCCCCCCCCCCCCCC(=O)*; γGlu = O=C(O)[C@H](CCC(=O)[*:2])N[*:1]; αMeF = C[C@](N)(Cc1ccccc1)C(=O)O; Abu = CC[C@H](N)C(=O)O; AEEA = NCCOCCOCC(=O)O; Aib = CC(C)(N)C(=O)O

Experiments:
[1] = Solubility assessment (UHPLC-UV of supernatant, target 10 mg/ml); type: physicochemical; conditions: for solubility at 24 h: pH 7.4, Soluble amount
Procedure: Prior to the solubility measurement of a peptide batch, its purity was determined through UHPLC/MS.
Therefore, solutions from solid samples were prepared in a buffer system with a concentration of 10 mg/ml compound based on the previously determined % purity: • Solubility buffer system A) 100 mM phosphate buffer pH 7.4 • Solubility buffer system B) 8 mM phosphate buffer pH 7.4, 14 mg/ml propylene glycol, 5.5 mg/ml phenol • Solubility buffer system C) 100 mM phosphate buffer pH 7.4, 2.7 mg/ml m-cresol
UHPLC-UV was performed after 1 h of gentle agitation and storage at 5° C. overnight (24 h) from the supernatant, which was obtained after 15 min of centrifugation at 2500 RCF (relative centrifugal acceleration).
The different UV extinction coefficients of sample and reference peptide were calculated based on the different amino acid sequences and considered in the concentration calculation.
The analytical method used was Analytical UHPLC Method A.
Peptide samples were prepared in solubility buffer system A or C and solubility was assessed as described in Methods.

[2] = target: human GLP-1 receptor (hGLP-1R) (Homo sapiens, UniProt P43220); experiment: In vitro cellular cAMP assay for GLP-1 receptor efficacy (HEK-293 cell line over-expressing receptor); type: cell-based; conditions: HEK-293, 0.1% BSA
[3] = target: T1, human GIP receptor (Homo sapiens, UniProt P48546); experiment: In vitro cellular cAMP assay for GIP receptor efficacy (human adipocytes); type: cell-based; conditions: for EC50: read-out: hGIPR EC50; for Emax: read-out: hGIPR Emax
T1 construct: human adipocytes endogenously expressing the human GIP receptor; host or cells: human preadipocytes (Lonza) differentiated to adipocytes
T1 sequence (P48546 22-466): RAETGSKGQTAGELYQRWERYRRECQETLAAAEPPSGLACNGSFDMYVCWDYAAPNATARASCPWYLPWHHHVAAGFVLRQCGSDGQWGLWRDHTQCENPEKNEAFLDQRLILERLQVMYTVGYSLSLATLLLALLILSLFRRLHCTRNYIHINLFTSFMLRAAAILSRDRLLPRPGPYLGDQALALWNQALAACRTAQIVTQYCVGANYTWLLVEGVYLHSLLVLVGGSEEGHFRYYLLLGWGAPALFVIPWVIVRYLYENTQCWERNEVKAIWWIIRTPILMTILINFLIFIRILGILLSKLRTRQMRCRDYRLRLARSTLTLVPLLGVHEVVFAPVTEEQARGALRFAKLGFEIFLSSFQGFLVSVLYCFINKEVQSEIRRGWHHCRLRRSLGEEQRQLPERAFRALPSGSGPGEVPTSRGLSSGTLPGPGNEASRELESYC
Procedure: For this, one vial of human preadipocytes (˜10^6 cells; Lonza) was thawed in a T-75 cell culture dish. The cells were cultivated at 37° C., 5% CO2, 95% humidity in Preadipocyte Growth Medium with Supplement Mix from Promo Cell.
After 3 days, the cells were washed with PBS and 1.5 ml Trypsin, incubated for 4 min, then resuspended in medium, centrifugated for 10 min @ 300 rcf RT, resuspended again and distributed to four T-75 cell culture dishes. Again, the cells were cultivated at 37° C., 5% CO2, 95% humidity.
After 5 days, the cells were washed with PBS and 1.5 ml Trypsin, incubated for 4 min, then resuspended in medium, centrifugated for 10 min @ 300 rcf RT, resuspended again and sawn in T-75 dishes (2.5×10^6 cells per dish) in 15 ml Differentiation medium each.
The differentiation medium had the following composition: DMEM (Gibco), Ham's F10 (Gibco), 15 mM HEPES (Gibco), 3% FCS (PAA), 33 μM biotin (Sigma-Aldrich), 17 μM Pantothenate (Sigma-Aldrich), 0.1 μM human insulin (Sigma-Aldrich), 1 μM dexamethason (Sigma-Aldrich), 0.1 μM PPARgamma agonist (#R2408, Sigma-Aldrich), 0.6×Anti-Anti (#15240, ThermoFisher), 200 μM IBMX (AppliChem), and 0.01 μM L-thyroxine (Sigma-Aldrich).
After 6 days of differentiation, 5000 cells per well were dispensed on a 96-well plate (#CLS3694 from Corning®, Sigma-Aldrich). For measurement of cAMP generation, 25 μL of test compound was added to each well of the 96-well plate, followed by incubation for 30 min at room temperature.
The cAMP generated following test compound stimulation was determined using a kit from Cisbio Corp. based on HTRF (Homogenous Time Resolved Fluorescence). The cAMP assay was performed according to manufacturer's instructions (Cisbio).
The cAMP content of cells was determined using a kit from Cisbio Corp. based on HTRF (Homogenous Time Resolved Fluorescence).
After addition of HTRF reagents diluted in lysis buffer (kit components), the plates were incubated for 1 h, followed by measurement of the fluorescence ratio at 665/620 nm.

[4] = target: T2, human GIP receptor (hGIPR) (Homo sapiens, UniProt P48546); experiment: Binding assay, displacement of [125I]GIP from HEK-293 membranes over-expressing GIPR (SPA); conditions: [125I]GIP displacement
T2 sequence (P48546 22-466): T1 sequence (P48546 22-466)
Procedure: (1) Preparation of Membranes from HEK-293 Cells Over-Expressing GIPR or GLP-1R
HEK-293 cells recombinantly over-expressing GIPR or GLP-1R were grown to 50% confluency, washed with warm 1×PBS (Gibco) and detached in HEPES/EDTA-buffer (100 mM HEPES pH 7.5, 5 mM EDTA). Cells were harvested by centrifugation at 4° C. and 3000×g and the pellets were stored at −80° C. until further processing.
After thawing on ice, pellets were resuspended in HEPES/EDTA-buffer and homogenized on ice for 1 min using Ultra-Turray T25. After subsequent sonification the cell debris was removed by centrifugation at 1000×g and 4° C. Supernatants were then ultra-centrifuged at 100000×g and 4° C. under vacuum for 30 min. Pellets were resuspended in HEPES/EDTA/NaCl-buffer (20 mM HEPES, 1 mM EDTA, 150 mM NaCl; add 1 Complete Mini Protease inhibitor cocktail to 10 ml buffer) and protein content was determined via BCA-Protein assay.
(2) Measurement of Binding Activity of Test Compounds to Human GIPR or GLP-1R

human GLP-1 receptor (hGLP-1R), sequence (P43220 24-463): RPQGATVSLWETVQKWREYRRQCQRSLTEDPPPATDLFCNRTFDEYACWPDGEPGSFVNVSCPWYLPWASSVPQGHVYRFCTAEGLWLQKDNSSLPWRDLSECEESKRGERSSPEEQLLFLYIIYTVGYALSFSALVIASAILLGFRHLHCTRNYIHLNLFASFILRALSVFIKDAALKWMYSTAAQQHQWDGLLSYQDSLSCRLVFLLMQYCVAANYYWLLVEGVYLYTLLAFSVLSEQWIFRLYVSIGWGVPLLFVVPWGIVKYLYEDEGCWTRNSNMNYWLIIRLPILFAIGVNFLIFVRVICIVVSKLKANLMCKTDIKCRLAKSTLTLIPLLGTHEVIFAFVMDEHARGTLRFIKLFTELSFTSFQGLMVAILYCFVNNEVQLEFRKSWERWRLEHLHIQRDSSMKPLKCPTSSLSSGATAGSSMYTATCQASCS

Structure (SMILES) | solubility at 24 h [1] | EC50 [2] | EC50 [3] | Emax [3] | IC50 [4] | Soluble amount ([1]; 24 h, pH 7.4)
CC[C@H](C)[C@H](NC(=O)[C@H](CCCNC(=N)N)NC(=O)[C@H](CC(=O)O)NC(=O)[C@H](CCCCNC(=O)COCCOCCNC(=O)COCCOCCNC(=O)CC[C@H](NC(=O)CCCCCCCCCCCCCCCCC(=O)O)C(=O)O)NC(=O)C(C)(C)NC(=O)[C@@H](NC(=O)[C@H](CO)NC(=O)[C@H](CC(C)C)NC(=O)[C@H](CC(=O)O)NC(=O)[C@H](CO)NC(=O)[C@@H](NC(=O)[C@H](Cc1ccccc1)NC(=O)[C@@H](NC(=O)CNC(=O)[C@H](CCC(=O)O)NC(=O)C(C)(C)NC(=O)[C@@H](N)Cc1ccc(O)cc1)[C@@H](C)O)[C@@H](C)CC)[C@@H](C)CC)C(=O)N[C@@H](Cc1c[nH]cn1)C(=O)N[C@@H](CCC(N)=O)C(=O)N[C@@H](CCC(=O)O)C(=O)N[C@@H](CCC(=O)O)C(=O)N[C@@](C)(Cc1ccccc1)C(=O)N[C@H](C(=O)N[C@@H](CCC(=O)O)C(=O)N[C@@H](Cc1c[nH]c2ccccc12)C(=O)N[C@@H](CC(C)C)C(=O)N[C@@H](CC(C)C)C(=O)N[C@@H](C)C(=O)N[C@@H](CCC(N)=O)C(=O)NCC(=O)N1CCC[C@H]1C(=O)N[C@@H](CO)C(=O)N[C@@H](CO)C(=O)NCC(=O)N[C@@H](C)C(=O)N1CCC[C@H]1C(=O)N1CCC[C@H]1C(=O)N1CCC[C@H]1C(=O)N[C@@H](CO)C(N)=O)[C@@H](C)CC [SEQ ID NO: 32, H2N-Y-Aib-E-G-T-F-I-S-D-L-S-I-Aib-K[{AEEA}2-gGlu-C18OH]-D-R-I-H-Q-E-E-Mph-I-E-W-L-L-A-Q-G-P-S-S-G-A-P-P-P-S-NH2] (H-Y[Aib]EGTFISDLSI[Aib]K([AEEA-AEEA-γGlu-C18 diacid])DRIHQEE[αMeF]IEWLLAQGPSSGAPPPS-NH2) | 8200 µg/mL (≈ 1630 µM) | > 10000 pM | 600 pM | 109% | 900 pM | –
CC[C@H](C)[C@H](NC(=O)[C@H](Cc1ccccc1)NC(=O)[C@H](CCC(=O)O)NC(=O)C(C)(C)NC(=O)[C@H](CCC(N)=O)NC(=O)[C@H](CCCCNC(=O)COCCOCCNC(=O)COCCOCCNC(=O)CC[C@H](NC(=O)CCCCCCCCCCCCCCCCC(=O)O)C(=O)O)NC(=O)[C@H](CCC(N)=O)NC(=O)[C@H](CCC(=O)O)NC(=O)[C@H](CCC(=O)O)NC(=O)[C@H](CC(C)C)NC(=O)C(C)(C)NC(=O)[C@@H](NC(=O)[C@H](CO)NC(=O)[C@H](CC(C)C)NC(=O)[C@H](CC(=O)O)NC(=O)[C@H](CO)NC(=O)[C@@H](NC(=O)[C@H](Cc1ccccc1)NC(=O)[C@@H](NC(=O)CNC(=O)[C@H](CCC(=O)O)NC(=O)C(C)(C)NC(=O)[C@@H](N)Cc1ccc(O)cc1)[C@@H](C)O)[C@@H](C)CC)[C@@H](C)CC)C(=O)N[C@@H](CCC(=O)O)C(=O)N[C@@H](Cc1c[nH]c2ccccc12)C(=O)N[C@@H](CC(C)C)C(=O)N[C@@H](CC(C)C)C(=O)N[C@@H](C)C(=O)N[C@@H](CCC(N)=O)C(=O)NCC(=O)N1CCC[C@H]1C(=O)N[C@@H](CO)C(=O)N[C@@H](CO)C(=O)NCC(=O)N[C@@H](C)C(=O)N1CCC[C@H]1C(=O)N1CCC[C@H]1C(=O)N1CCC[C@H]1C(=O)N[C@@H](CO)C(N)=O [SEQ ID NO: 36, H2N-Y-Aib-E-G-T-F-I-S-D-L-S-I-Aib-L-E-E-Q-K[{AEEA}2-gGlu-C18OH]-Q-Aib-E-F-I-E-W-L-L-A-Q-G-P-S-S-G-A-P-P-P-S-NH2] (H-Y[Aib]EGTFISDLSI[Aib]LEEQK([AEEA-AEEA-γGlu-C18 diacid])Q[Aib]EFIEWLLAQGPSSGAPPPS-NH2) | > 10700 µg/mL | > 10000 pM | 300 pM | 104% | 200 pM | –
CC[C@H](NC(=O)[C@@H](NC(=O)CNC(=O)[C@H](CCC(=O)O)NC(=O)C(C)(C)NC(=O)[C@@H](N)Cc1ccc(O)cc1)[C@@H](C)O)C(=O)N[C@H](C(=O)N[C@@H](CO)C(=O)N[C@@H](CC(=O)O)C(=O)N[C@@H](CC(C)C)C(=O)N[C@@H](CO)C(=O)N[C@H](C(=O)NC(C)(C)C(=O)N[C@@H](CCCCNC(=O)COCCOCCNC(=O)COCCOCCNC(=O)CC[C@H](NC(=O)CCCCCCCCCCCCCCCCC(=O)O)C(=O)O)C(=O)N[C@@H](CC(=O)O)C(=O)N[C@@H](CCCNC(=N)N)C(=O)N[C@H](C(=O)N[C@@H](Cc1c[nH]cn1)C(=O)N[C@@H](CCC(N)=O)C(=O)N[C@@H](CCC(=O)O)C(=O)N[C@@H](CCC(=O)O)C(=O)N[C@@H](Cc1ccccc1)C(=O)N[C@H](C(=O)N[C@@H](CCC(=O)O)C(=O)N[C@@H](Cc1c[nH]c2ccccc12)C(=O)N[C@@H](CC(C)C)C(=O)N[C@@H](CC(C)C)C(=O)N[C@@H](C)C(=O)N[C@@H](CCC(N)=O)C(=O)NCC(=O)N1CCC[C@H]1C(=O)N[C@@H](CO)C(=O)N[C@@H](CO)C(=O)NCC(=O)N[C@@H](C)C(=O)N1CCC[C@H]1C(=O)N1CCC[C@H]1C(=O)N1CCC[C@H]1C(=O)N[C@@H](CO)C(N)=O)[C@@H](C)CC)[C@@H](C)CC)[C@@H](C)CC)[C@@H](C)CC [SEQ ID NO: 25, H2N-Y-Aib-E-G-T-Abu-I-S-D-L-S-I-Aib-K[{AEEA}2-gGlu-C18OH]-DRIHQEEFIEWLLAQGPSSGAPPPS-NH2] (H-Y[Aib]EGT[Abu]ISDLSI[Aib]K([AEEA-AEEA-γGlu-C18 diacid])DRIHQEEFIEWLLAQGPSSGAPPPS-NH2) | > 8800 µg/mL | > 10000 pM | 200 pM | 112% | 100 pM | >9.2 mg/mL
